System: kk mice
Experiment: Hypoglycemic action (blood sugar level decreasing ratio after 4 days of oral administration)
Assay type: in vivo
Conditions: 30 mg/day, daily for 4 days, in 0.5% methyl cellulose, six male kk mice per group, blood sampled before and on fifth day, *** = p<0.001
Description: Male kk mice of 4 to 5 w were purchased from CLEA Japan Inc. These animals were separately reared with a high calorie food (CMF, manufactured by Oriental Yeast), and the animals of which the body weight was more than 40 g were used in the test.
Measurement of the blood sugar level was carried out by collecting a 10 μl portion of blood from a tail vein, removing protein from the collected sample by its treatment with 100 μl of 0.33N perchloric acid, and after centrifugation, measuring glucose in the resulting supernatant by the glucose oxidase method. Six animals having a blood sugar level of more than 200 mg/dl were used as one group in the test.
Each drug was suspended in 0.5% methyl cellulose and orally administered daily for 4 days. Blood samples were collected before and on the fifth day of the drug administration from the tail vein. Blood sugar level was determined with the aforementioned method.
The hypoglycemic activity was expressed as the blood sugar level decreasing ratio to the pre-administration level and statistically evaluated as a significant threshold value of p=0.05.

In the case of O=c1[nH]c(=O)n(Cc2ccc(Oc3cccc(Oc4ccc(Cn5oc(=O)[nH]c5=O)cc4)c3)cc2)o1 [Example 6, 1,3-Bis[4-[(3,5-dioxo-1,2,4-oxadiazolidin-2-yl)methyl]phenoxy]benzene], the “blood sugar level decreasing ratio to the pre-administration level” value is reported as 53%.

Reference: patent publication US5643931A, “Bisoxadiazolidine derivative” (Yamanouchi Pharmaceutical Co., Ltd., priority 1993, dated 1997)
